Data taken from PubChem BioAssay (NCI).
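Results reflect a 48-hour exposure of cells in 96-well plates to compound at five concentrations. GI50 marks 50% less growth. TGI: concentration producing complete growth inhibition.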

How the values were obtained:
Assay in all cases: NCI anticancer screen, dose series, 48 h
786-0 renal = test system: 786-0 renal
PC-3 prostate = test system: PC-3 prostate
HT29 colon = test system: HT29 colon
SK-MEL-28 melanoma = test system: SK-MEL-28 melanoma
MCF7 breast = test system: MCF7 breast
SNB-75 CNS = test system: SNB-75 CNS
HOP-92 NSCLC = test system: HOP-92 NSCLC
LOX IMVI melanoma = test system: LOX IMVI melanoma
SK-OV-3 ovarian = test system: SK-OV-3 ovarian
M14 melanoma = test system: M14 melanoma
K-562 leukemia = test system: K-562 leukemia
KM12 colon = test system: KM12 colon
HCT-15 colon = test system: HCT-15 colon
NCI-H460 lung = test system: NCI-H460 lung
EKVX NSCLC = test system: EKVX NSCLC
SK-MEL-5 melanoma = test system: SK-MEL-5 melanoma
SK-MEL-2 melanoma = test system: SK-MEL-2 melanoma
UACC-257 melanoma = test system: UACC-257 melanoma
UACC-62 melanoma = test system: UACC-62 melanoma
SF-295 CNS = test system: SF-295 CNS
MOLT-4 leukemia = test system: MOLT-4 leukemia
SR leukemia = test system: SR leukemia
MDA-MB-435 = test system: MDA-MB-435
ACHN renal = test system: ACHN renal
SNB-19 CNS = test system: SNB-19 CNS
RXF 393 renal = test system: RXF 393 renal
A549 NSCLC = test system: A549 NSCLC
RPMI-8226 leukemia = test system: RPMI-8226 leukemia
OVCAR-5 ovarian = test system: OVCAR-5 ovarian
SW-620 colon = test system: SW-620 colon
UO-31 renal = test system: UO-31 renal
SF-539 CNS = test system: SF-539 CNS
NCI/ADR-RES ovarian = test system: NCI/ADR-RES ovarian
OVCAR-4 ovarian = test system: OVCAR-4 ovarian
U251 CNS = test system: U251 CNS
HL-60(TB) leukemia = test system: HL-60(TB) leukemia
SN12C renal = test system: SN12C renal
COLO 205 colon = test system: COLO 205 colon
BT-549 breast = test system: BT-549 breast
TK-10 renal = test system: TK-10 renal
A498 renal = test system: A498 renal
OVCAR-3 ovarian = test system: OVCAR-3 ovarian
CAKI-1 renal = test system: CAKI-1 renal
HS 578T breast = test system: HS 578T breast
NCI-H23 lung = test system: NCI-H23 lung
CCRF-CEM leukemia = test system: CCRF-CEM leukemia
T-47D breast = test system: T-47D breast
HCC-2998 colon = test system: HCC-2998 colon
HOP-62 NSCLC = test system: HOP-62 NSCLC
DU-145 prostate = test system: DU-145 prostate
SF-268 CNS = test system: SF-268 CNS
MDA-MB-468 breast = test system: MDA-MB-468 breast
OVCAR-8 ovarian = test system: OVCAR-8 ovarian
NCI-H226 lung = test system: NCI-H226 lung
MDA-MB-231 breast = test system: MDA-MB-231 breast
IGROV1 ovarian = test system: IGROV1 ovarian
NCI-H522 lung = test system: NCI-H522 lung
MALME-3M melanoma = test system: MALME-3M melanoma

## CC(=O)Oc1ccccc1C(=O)Oc1ccc(C(=O)/C=C/c2ccncc2)cc1
786-0 renal
  GI50: 16.1 µM
  TGI: > 100 µM
PC-3 prostate
  GI50: 10.4 µM
  TGI: > 100 µM
HT29 colon
  GI50: 3.6 µM
  TGI: 20.1 µM
SK-MEL-28 melanoma
  GI50: 19.3 µM
  TGI: 62.1 µM
MCF7 breast
  GI50: 1.1 µM
  TGI: 9.24 µM
SNB-75 CNS
  GI50: 15.8 µM
  TGI: > 100 µM
HOP-92 NSCLC
  GI50: 21.1 µM
  TGI: > 100 µM
LOX IMVI melanoma
  GI50: 1.96 µM
  TGI: 5.87 µM
SK-OV-3 ovarian
  GI50: 30.9 µM
  TGI: > 100 µM
M14 melanoma
  GI50: 14.5 µM
  TGI: > 100 µM
K-562 leukemia
  GI50: 2.29 µM
  TGI: > 100 µM
KM12 colon
  GI50: 3.57 µM
  TGI: 22.2 µM
HCT-15 colon
  GI50: 3.55 µM
  TGI: 18.8 µM
NCI-H460 lung
  GI50: 11.2 µM
  TGI: 48.9 µM
EKVX NSCLC
  GI50: 14.7 µM
  TGI: 45.7 µM
SK-MEL-5 melanoma
  GI50: 12.4 µM
  TGI: 29.5 µM
SK-MEL-2 melanoma
  GI50: 32.5 µM
  TGI: > 100 µM
UACC-257 melanoma
  GI50: 16.9 µM
  TGI: 63.4 µM
UACC-62 melanoma
  GI50: 16.6 µM
  TGI: 42.3 µM
SF-295 CNS
  GI50: 8.56 µM
  TGI: 58.1 µM
MOLT-4 leukemia
  GI50: 15.9 µM
  TGI: 85.9 µM
SR leukemia
  GI50: 0.407 µM
  TGI: > 100 µM
MDA-MB-435
  GI50: 4.45 µM
  TGI: 44.3 µM
ACHN renal
  GI50: 15.6 µM
  TGI: 44.9 µM
SNB-19 CNS
  GI50: 15.3 µM
  TGI: 47.3 µM
RXF 393 renal
  GI50: 5.25 µM
  TGI: 20.8 µM
A549 NSCLC
  GI50: 15.1 µM
  TGI: > 100 µM
RPMI-8226 leukemia
  GI50: 1.58 µM
  TGI: 7.19 µM
OVCAR-5 ovarian
  GI50: 24.9 µM
  TGI: 99.1 µM
SW-620 colon
  GI50: 3.04 µM
  TGI: 18.9 µM
UO-31 renal
  GI50: 10.3 µM
  TGI: 24 µM
SF-539 CNS
  GI50: 4.29 µM
  TGI: 17.4 µM
NCI/ADR-RES ovarian
  GI50: 20.7 µM
  TGI: > 100 µM
OVCAR-4 ovarian
  GI50: 29.7 µM
  TGI: > 100 µM
U251 CNS
  GI50: 3.77 µM
  TGI: 70.8 µM
HL-60(TB) leukemia
  GI50: 4.93 µM
  TGI: 34.1 µM
SN12C renal
  GI50: 10.1 µM
  TGI: 45.5 µM
COLO 205 colon
  GI50: 12.7 µM
  TGI: 40.5 µM
BT-549 breast
  GI50: 17 µM
  TGI: 38.7 µM
TK-10 renal
  GI50: 37.4 µM
  TGI: > 100 µM
A498 renal
  GI50: 20.5 µM
  TGI: 71.4 µM
OVCAR-3 ovarian
  GI50: 5.3 µM
  TGI: 26 µM
CAKI-1 renal
  GI50: 19.3 µM
  TGI: > 100 µM
HS 578T breast
  GI50: 22.5 µM
  TGI: > 100 µM
NCI-H23 lung
  GI50: 10.8 µM
  TGI: 30.8 µM
CCRF-CEM leukemia
  GI50: 2.38 µM
  TGI: > 100 µM
T-47D breast
  GI50: 23.8 µM
  TGI: 97.6 µM
HCC-2998 colon
  GI50: 4.83 µM
  TGI: 16.4 µM
HOP-62 NSCLC
  GI50: 27.5 µM
  TGI: > 100 µM
DU-145 prostate
  GI50: 10.5 µM
  TGI: 44.1 µM
SF-268 CNS
  GI50: 25 µM
  TGI: > 100 µM
MDA-MB-468 breast
  GI50: 2.36 µM
  TGI: 8.34 µM
OVCAR-8 ovarian
  GI50: 24.9 µM
  TGI: > 100 µM
NCI-H226 lung
  GI50: 26.4 µM
  TGI: > 100 µM
MDA-MB-231 breast
  GI50: 8.6 µM
  TGI: 36.2 µM
IGROV1 ovarian
  GI50: 7.4 µM
  TGI: 54 µM
NCI-H522 lung
  GI50: 4.85 µM
  TGI: 21.5 µM
MALME-3M melanoma
  GI50: 16.5 µM
  TGI: 51.4 µM
